The target in this experiment is CK2A1 (CK2α/β) (Homo sapiens, UniProt P68400). Nature of the experiment: CK2 kinase assay, CK2A1 (CK2α/β). As to conditions: Table A; read-out: CK2A1 (CK2α/β) (IC50). Format: biochemical.
CK2A1 (CK2α/β), sequence (P68400 whole entry, species assumed): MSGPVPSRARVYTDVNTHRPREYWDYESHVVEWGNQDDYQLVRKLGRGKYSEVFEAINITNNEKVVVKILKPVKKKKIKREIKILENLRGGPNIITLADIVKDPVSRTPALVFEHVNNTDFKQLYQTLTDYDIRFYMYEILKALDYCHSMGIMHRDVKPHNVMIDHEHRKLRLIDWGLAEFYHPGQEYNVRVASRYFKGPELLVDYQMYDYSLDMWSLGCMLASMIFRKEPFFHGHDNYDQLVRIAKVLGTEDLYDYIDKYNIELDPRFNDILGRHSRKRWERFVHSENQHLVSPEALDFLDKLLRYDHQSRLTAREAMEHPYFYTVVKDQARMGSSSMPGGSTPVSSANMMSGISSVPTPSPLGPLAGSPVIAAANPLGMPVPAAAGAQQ
CK2A1 (CK2α/β), sequence (P67870 whole entry partner, species assumed): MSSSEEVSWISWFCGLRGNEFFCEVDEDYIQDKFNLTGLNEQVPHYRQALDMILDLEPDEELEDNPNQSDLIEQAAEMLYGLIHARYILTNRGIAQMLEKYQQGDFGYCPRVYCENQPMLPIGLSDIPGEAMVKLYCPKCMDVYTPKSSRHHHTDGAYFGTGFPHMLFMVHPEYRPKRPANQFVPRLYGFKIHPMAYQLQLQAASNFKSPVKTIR
Turning to `CCNc1nc(Nc2cc(C#N)cc(N3CCN(C4CCOC4)CC3)c2Cl)nn2c(C#N)cnc12` (racemic) [Example 103, (+/−) 2-((2-chloro-5-cyano-3-(4-(tetrahydro-3-furanyl)-1-piperazinyl)phenyl)amino)-4-(ethylamino)imidazo [2,1-f][1,2,4]triazine-7-carbonitrile], the IC50 was found to be 0.83 nM.

Take `CC1CN(C2CCN(c3cc(C#N)cc(Nc4nc(NC5CC5)c5ncc(C#N)n5n4)c3Cl)CC2)CC(C)O1` (racemic) [Example 109, (+/−) 2-((2-chloro-5-cyano-3-(4-(2,6-dimethyl-4-morpholinyl)-1-piperidinyl)phenyl)amino)-4-(cyclopropylamino)imidazo [2,1-f][1,2,4]triazine-7-carbonitrile]: the IC50 was 4.09 nM. To `N#Cc1cc(Nc2nc(NC3CC3)c3ncc(C#N)n3n2)c(Cl)c(N2CCC(NC3CCOC3)CC2)c1` (racemic) [Example 112, (+/−) 2-((2-chloro-5-cyano-3-(4-(tetrahydro-3-furanylamino)-1-piperidinyl)phenyl)amino)-4-(cyclopropylamino)imidazo [2,1-f][1,2,4]triazine-7-carbonitrile] belongs 2.56 nM; to `N#Cc1cc(Nc2nc(NC3CC3)c3ncc(C#N)n3n2)c(Cl)c(N2CCC(NC3(CS(=O)(=O)c4ccccc4)COC3)CC2)c1` (racemic) [Example 113, (+/−) 2-((2-chloro-5-cyano-3-(4-((3-((phenylsulfonyl)methyl)-3-oxetanyl)amino)-1-piperidinyl)phenyl)amino)-4-(cyclopropylamino)imidazo [2,1-f][1,2,4]triazine-7-carbonitrile], 1.01 nM; to `N#CCC1(NC2CCN(c3cc(C#N)cc(Nc4nc(NC5CC5)c5ncc(C#N)n5n4)c3Cl)CC2)COC1` (racemic) [Example 114, (+/−) 2-((2-chloro-5-cyano-3-(4-((3-(cyanomethyl)-3-oxetanyl)amino)-1-piperidinyl)phenyl)amino)-4-(cyclopropylamino)imidazo [2,1-f][1,2,4]triazine-7-carbonitrile], 1.57 nM.

On to `CN1CC(NC2CCN(c3cc(C#N)cc(Nc4nc(NC5CC5)c5ncc(C#N)n5n4)c3Cl)CC2)CC1=O` (racemic) [Example 116, (+/−) 2-((2-chloro-5-cyano-3-(4-((1-methyl-5-oxo-3-pyrrolidinyl)amino)-1-piperidinyl)phenyl)amino)-4-(cyclopropylamino)imidazo [2,1-f][1,2,4]triazine-7-carbonitrile], for which the IC50 was 0.68 nM. `N#Cc1cc(Nc2nc(NC3CC3)c3ncc(C#N)n3n2)c(Cl)c(N2CCC(N[C@H]3CC[C@H](O)C3)CC2)c1` (racemic) [Example 120, (+/−) 2-((2-chloro-5-cyano-3-(4-(((1S,3S)-3-hydroxycyclopentyl)amino)-1-piperidinyl)phenyl)amino)-4-(cyclopropylamino)imidazo [2,1-f][1,2,4]triazine-7-carbonitrile]: the IC50 was found to be 0.69 nM.

For the compound `N#Cc1cc(Nc2nc(NC3CC3)c3ncc(C#N)n3n2)c(Cl)c(N2CCC(N[C@@H]3CC[C@H](O)C3)CC2)c1` (racemic) [Example 121, (+/−) 2-((2-chloro-5-cyano-3-(4-(((1R,3S)-3-hydroxycyclopentyl)amino)-1-piperidinyl)phenyl)amino)-4-(cyclopropylamino)imidazo [2,1-f][1,2,4]triazine-7-carbonitrile], the IC50 turned out to be 1.05 nM. To `C[C@H]1OCC[C@@H]1NC1CCN(c2cc(C#N)cc(Nc3nc(NC4CC4)c4ncc(C#N)n4n3)c2Cl)CC1` (racemic) [Example 122, (+/−) 2-((2-chloro-5-cyano-3-(4-(((2R,3S)-2-methyltetrahydro-3-furanyl)amino)-1-piperidinyl)phenyl)amino)-4-(cyclopropylamino)imidazo [2,1-f][1,2,4]triazine-7-carbonitrile] belongs 0.8 nM. To `C[C@@H]1OCC[C@@H]1NC1CCN(c2cc(C#N)cc(Nc3nc(NC4CC4)c4ncc(C#N)n4n3)c2Cl)CC1` (racemic) [Example 123, (+/−) 2-((2-chloro-5-cyano-3-(4-(((2S,3S)-2-methyltetrahydro-3-furanyl)amino)-1-piperidinyl)phenyl)amino)-4-(cyclopropylamino)imidazo [2,1-f][1,2,4]triazine-7-carbonitrile] belongs 0.55 nM. For `N#Cc1cc(Nc2nc(NC3CC3)c3ncc(C#N)n3n2)c(Cl)c(N2CCC(N[C@@H]3CCCC[C@@H]3F)CC2)c1` (racemic) [Example 127, (+/−) 2-(2-chloro-5-cyano-3-(4-((1R,2R)-2-fluorocyclohexylamino)piperidin-1-yl)phenylamino)-4-(cyclopropylamino)imidazo [1,2-f][1,2,4]triazine-7-carbonitrile], the IC50 came to 0.62 nM. To `N#Cc1cc(Nc2nc(NC3CC3)c3ncc(C#N)n3n2)c(Cl)c(N2CCC(N[C@@H]3CCCC[C@H]3F)CC2)c1` (racemic) [Example 128, (+/−)2-(2-chloro-5-cyano-3-(4-((1R,2S)-2-fluorocyclohexylamino)piperidin-1-yl)phenylamino)-4-(cyclopropylamino)imidazo [1,2-f][1,2,4]triazine-7-carbonitrile] belongs 4.77 nM. For the compound `N#Cc1cc(Nc2nc(NC3CC3)c3ncc(C#N)n3n2)c(Cl)c(N2CCC(N[C@H]3COC[C@@H]3O)CC2)c1` (racemic) [Example 135, (+/−) 2-((2-chloro-5-cyano-3-(4-(((3S,4R)-4-hydroxytetrahydro-3-furanyl)amino)-1-piperidinyl)phenyl)amino)-4-(cyclopropylamino)imidazo [2,1-f][1,2,4]triazine-7-carbonitrile], the IC50 was 0.68 nM. For `CC(O)CNC1CCN(c2cc(C#N)cc(Nc3nc(NC4CC4)c4ncc(C#N)n4n3)c2Cl)CC1` (racemic) [Example 138, (+/−).2-(2-chloro-5-cyano-3-(4-(2-hydroxypropylamino)piperidin-1-yl)phenylamino)-4-(cyclopropylamino)imidazo [1,2-f][1,2,4]triazine-7-carbonitrile], the IC50 amounted to 0.64 nM. To `N#Cc1cc(Nc2nc(NC3CC3)c3ncc(C#N)n3n2)c(Cl)c(N2CCC(NCC(O)C(F)(F)F)CC2)c1` (racemic) [Example 139, (+/−) 2-((2-chloro-5-cyano-3-(4-((3,3,3-trifluoro-2-hydroxypropyl)amino)-1-piperidinyl)phenyl)amino)-4-(cyclopropylamino)imidazo [2,1-f][1,2,4]triazine-7-carbonitrile] belongs 0.45 nM; to `COCC(NC1CCN(c2cc(C#N)cc(Nc3nc(NC4CC4)c4ncc(C#N)n4n3)c2Cl)CC1)C1CC1` (racemic) [Example 142, (+/−) 2-((2-chloro-5-cyano-3-(4-((1-cyclopropyl-2-methoxyethyl)amino)-1-piperidinyl)phenyl)amino)-4-(cyclopropylamino)imidazo [2,1-f][1,2,4]triazine-7-carbonitrile], 0.67 nM; to `N#Cc1cc(Nc2nc(NC3CC3)c3ncc(C#N)n3n2)c(Cl)c(N2CCC(NCC(O)CF)CC2)c1` (racemic) [Example 144, (+/−) 2-((2-chloro-5-cyano-3-(4-((3-fluoro-2-hydroxypropyl)amino)-1-piperidinyl)phenyl)amino)-4-(cyclopropylamino)imidazo [2,1-f][1,2,4]triazine-7-carbonitrile], 1.11 nM.

The values are drawn from patent US9273057B2 (Bristol-Myers Squibb Company, priority 2012, dated 2016).
